Bounds are passed on as bounds.

In the test the target is T1, human TGR5 (Homo sapiens, UniProt Q8TDU6).
T1 construct: expressed in transfected cells; host or cells: HEK293
T1 sequence (Q8TDU6 1-330): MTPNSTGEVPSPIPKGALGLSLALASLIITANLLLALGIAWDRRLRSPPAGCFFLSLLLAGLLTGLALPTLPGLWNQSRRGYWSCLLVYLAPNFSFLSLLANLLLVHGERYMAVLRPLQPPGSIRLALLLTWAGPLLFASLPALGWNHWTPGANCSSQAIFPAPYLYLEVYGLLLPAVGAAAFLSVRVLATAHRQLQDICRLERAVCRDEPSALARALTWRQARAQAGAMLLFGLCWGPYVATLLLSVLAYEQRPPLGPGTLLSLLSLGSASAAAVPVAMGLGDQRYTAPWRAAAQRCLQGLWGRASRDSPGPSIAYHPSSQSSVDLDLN
The experiment in a line: Cell-based TGR5 assay (cAMP generation, HTRF). As to conditions: HEK293 cells stably transfected with human TGR5; cAMP by HTRF; 30 minutes at 37° C.; read-out: pEC50 Human TGR5 (converted). In short, it runs like this:
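First, compounds in 3-fold serial dilution were placed in HBSS with 10 mM HEPES pH 7.4 and 0.5 mM IBMX. Next, human TGR5-expressing HEK293 cells were added and incubated 30 min at 37° C. Finally, cAMP was detected by HTRF and pEC50 derived by logistic fitting.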
As to `CN(CCCCCSc1ccc(Cl)c(COC2(c3cnccc3-c3ccccc3OC3CC3)CC2)c1)C(=O)[C@@H](O)[C@@H](O)[C@H](O)[C@@H](O)CO` [Compound I-509, (2S,3S,4R,5S)-N-(5-{[4-chloro-3-({1-[4-(2-cyclopropoxyphenyl)pyridin-3-yl]cyclopropoxy}methyl)phenyl]sulfanyl}pentyl)-2,3,4,5,6-pentahydroxy-N-methylhexanamide], the EC50 is less than 100 nM. For `CN(CCCCSc1ccc(Cl)c(COC2(c3cnccc3-c3ccccc3OC3CC3)CC2)c1)C(=O)[C@@H](O)[C@@H](O)[C@H](O)[C@@H](O)CO` [Compound I-510, (2S,3S,4R,5S)-N-(4-{[4-chloro-3-({11-[4-(2-cyclopropoxyphenyl)pyridin-3-yl]cyclopropoxy}methyl)phenyl]sulfanyl}butyl)-2,3,4,5,6-pentahydroxy-N-methylhexanamide] the value was less than 100 nM. As to `CN(CCCSc1ccc(Cl)c(CNC2(c3cnccc3-c3ccccc3OC3CC3)CC2)c1)C(=O)[C@@H](O)[C@@H](O)[C@H](O)[C@@H](O)CO` [Compound I-511, (2S,3S,4R,5S)-N-[3-({4-chloro-3-[({1-[4-(2-cyclopropoxyphenyl)pyridin-3-yl]cyclopropyl}amino)methyl]phenyl}sulfanyl)propyl]-2,3,4,5,6-pentahydroxy-N-methylhexanamide], the EC50 is less than 100 nM. Take `O=C([C@@H](O)[C@@H](O)[C@H](O)[C@@H](O)CO)N(CCCCSc1ccc(Cl)c(COC2(c3cnccc3-c3ccccc3OC3CC3)CC2)c1)CCOCCO` [Compound I-512, (2S,3S,4R,5S)-N-(4-{[4-chloro-3-({1-[4-(2-cyclopropoxyphenyl)pyridin-3-yl]cyclopropoxy}methyl)phenyl]sulfanyl}butyl)-2,3,4,5,6-pentahydroxy-N-[2-(2-hydroxyethoxy)ethyl]hexanamide]: the EC50 is less than 100 nM.

`O=C([C@@H](O)[C@@H](O)[C@H](O)[C@@H](O)CO)N(CCCCO)CCCCSc1ccc(Cl)c(COC2(c3cnccc3-c3ccccc3OC3CC3)CC2)c1` [Compound I-513, (2S,3S,4R,5S)-N-(4-{[4-chloro-3-({1-[4-(2-cyclopropoxyphenyl)pyridin-3-yl]cyclopropoxy}methyl)phenyl]sulfanyl}butyl)-2,3,4,5,6-pentahydroxy-N-(4-hydroxybutyl)hexanamide]: the EC50 is less than 100 nM. Turning to `O=C([C@@H](O)[C@@H](O)[C@H](O)[C@@H](O)CO)N(CCCCSc1ccc(Cl)c(COC2(c3cnccc3-c3ccccc3OC3CC3)CC2)c1)C1CCOCC1` [Compound I-514, (2S,3S,4R,5S)-N-(4-{[4-chloro-3-({1-[4-(2-cyclopropoxyphenyl)pyridin-3-yl]cyclopropoxy}methyl)phenyl]sulfanyl}butyl)-2,3,4,5,6-pentahydroxy-N-(oxan-4-yl)hexanamide], the EC50 is less than 100 nM. For `O=C1CCCN1CCCN(CCCCSc1ccc(Cl)c(COC2(c3cnccc3-c3ccccc3OC3CC3)CC2)c1)C(=O)[C@@H](O)[C@@H](O)[C@H](O)[C@@H](O)CO` [Compound I-515, (2S,3S,4R,5S)-N-(4-{[4-chloro-3-({1-[4-(2-cyclopropoxyphenyl)pyridin-3-yl]cyclopropoxy}methyl)phenyl]sulfanyl}butyl)-2,3,4,5,6-pentahydroxy-N-[3-(2-oxopyrrolidin-1-yl)propyl]hexanamide] the value was less than 100 nM; for `O=C([C@@H](O)[C@@H](O)[C@H](O)[C@@H](O)CO)N(CCCCSc1ccc(Cl)c(COC2(c3cnccc3-c3ccccc3OC3CC3)CC2)c1)CC1CCOCC1` [Compound I-516, (2S,3S,4R,5S)-N-(4-{[4-chloro-3-({1-[4-(2-cyclopropoxyphenyl)pyridin-3-yl]cyclopropoxy}methyl)phenyl]sulfanyl}butyl)-2,3,4,5,6-pentahydroxy-N-(oxan-4-ylmethyl)hexanamide], less than 100 nM; for `O=C1NCCN1CCN(CCCCSc1ccc(Cl)c(COC2(c3cnccc3-c3ccccc3OC3CC3)CC2)c1)C(=O)[C@@H](O)[C@@H](O)[C@H](O)[C@@H](O)CO` [Compound I-517, (2S,3S,4R,5S)-N-(4-{[4-chloro-3-({1-[4-(2-cyclopropoxyphenyl)pyridin-3-yl]cyclopropoxy}methyl)phenyl]sulfanyl}butyl)-2,3,4,5,6-pentahydroxy-N-[2-(2-oxoimidazolidin-1-yl)ethyl]hexanamide], less than 100 nM. For `O=C([C@@H](O)[C@@H](O)[C@H](O)[C@@H](O)CO)N(CCCSc1ccc(Cl)c(COC2(c3cnccc3-c3ccccc3OC3CC3)CC2)c1)CCOCCO` [Compound I-518, (2S,3S,4R,5S)-N-(3-{[4-chloro-3-({1-[4-(2-cyclopropoxyphenyl)pyridin-3-yl]cyclopropoxy}methyl)phenyl]sulfanyl}propyl)-2,3,4,5,6-pentahydroxy-N-[2-(2-hydroxyethoxy)ethyl]hexanamide] the value was less than 100 nM; for `O=C([C@@H](O)[C@@H](O)[C@H](O)[C@@H](O)CO)N(CCCCO)CCCSc1ccc(Cl)c(COC2(c3cnccc3-c3ccccc3OC3CC3)CC2)c1` [Compound I-519, (2S,3S,4R,5S)-N-(3-{[4-chloro-3-({1-[4-(2-cyclopropoxyphenyl)pyridin-3-yl]cyclopropoxy}methyl)phenyl]sulfanyl}propyl)-2,3,4,5,6-pentahydroxy-N-(4-hydroxybutyl)hexanamide], 126 to 1000 nM. For `O=C1CCCN1CCCN(CCCSc1ccc(Cl)c(COC2(c3cnccc3-c3ccccc3OC3CC3)CC2)c1)C(=O)[C@@H](O)[C@@H](O)[C@H](O)[C@@H](O)CO` [Compound I-520, (2S,3S,4R,5S)-N-(3-{[4-chloro-3-({1-[4-(2-cyclopropoxyphenyl)pyridin-3-yl]cyclopropoxy}methyl)phenyl]sulfanyl}propyl)-2,3,4,5,6-pentahydroxy-N-[3-(2-oxopyrrolidin-1-yl)propyl]hexanamide] the value was 126 to 1000 nM. On to `O=C([C@@H](O)[C@@H](O)[C@H](O)[C@@H](O)CO)N(CCCSc1ccc(Cl)c(COC2(c3cnccc3-c3ccccc3OC3CC3)CC2)c1)CCN1CCS(=O)(=O)CC1` [Compound I-521, (2S,3S,4R,5S)-N-(3-{[4-chloro-3-({1-[4-(2-cyclopropoxyphenyl)pyridin-3-yl]cyclopropoxy}methyl)phenyl]sulfanyl}propyl)-N-[2-(1,1-dioxo-1λ^6,4-thiomorpholin-4-yl)ethyl]-2,3,4,5,6-pentahydroxyhexanamide], for which the EC50 was 126 to 1000 nM. The result for `O=C([C@@H](O)[C@@H](O)[C@H](O)[C@@H](O)CO)N(CCCSc1ccc(Cl)c(COC2(c3cnccc3-c3ccccc3OC3CC3)CC2)c1)CC1CCOCC1` [Compound I-522, (2S,3S,4R,5S)-N-(3-{[4-chloro-3-({1-[4-(2-cyclopropoxyphenyl)pyridin-3-yl]cyclopropoxy}methyl)phenyl]sulfanyl}propyl)-2,3,4,5,6-pentahydroxy-N-(oxan-4-ylmethyl)hexanamide] reads 126 to 1000 nM. With `CS(=O)(=O)CCCN(CCCCSc1ccc(Cl)c(COC2(c3cnccc3-c3ccccc3OC3CC3)CC2)c1)C(=O)[C@@H](O)[C@@H](O)[C@H](O)[C@@H](O)CO` [Compound I-523, (2S,3S,4R,5S)-N-(4-{[4-chloro-3-({1-[4-(2-cyclopropoxyphenyl)pyridin-3-yl]cyclopropoxy}methyl)phenyl]sulfanyl}butyl)-2,3,4,5,6-pentahydroxy-N-(3-methanesulfonylpropyl)hexanamide], the EC50 is less than 100 nM.

Consider `O=C([C@@H](O)[C@@H](O)[C@H](O)[C@@H](O)CO)N(CCCCSc1ccc(Cl)c(COC2(c3cnccc3-c3ccccc3OC3CC3)CC2)c1)CCN1CCS(=O)(=O)CC1` [Compound I-524, (2S,3S,4R,5S)-N-(4-{[4-chloro-3-({1-[4-(2-cyclopropoxyphenyl)pyridin-3-yl]cyclopropoxy}methyl)phenyl]sulfanyl}butyl)-N-[2-(1,1-dioxo-1λ^6,4-thiomorpholin-4-yl)ethyl]-2,3,4,5,6-pentahydroxyhexanamide], for which the EC50 was 126 to 1000 nM.

In the case of `CS(=O)(=O)CCCN(CCCSc1ccc(Cl)c(CNC2(c3cnccc3-c3ccccc3OC3CC3)CC2)c1)C(=O)[C@@H](O)[C@@H](O)[C@H](O)[C@@H](O)CO` [Compound I-525, (2S,3S,4R,5S)-N-[3-({4-chloro-3-[({1-[4-(2-cyclopropoxyphenyl)pyridin-3-yl]cyclopropyl}amino)methyl]phenyl}sulfanyl)propyl]-2,3,4,5,6-pentahydroxy-N-(3-methanesulfonylpropyl) hexanamide], the EC50 was 126 to 1000 nM. For `O=C([C@@H](O)[C@@H](O)[C@H](O)[C@@H](O)CO)N(CCCSc1ccc(Cl)c(CNC2(c3cnccc3-c3ccccc3OC3CC3)CC2)c1)CCOCCO` [Compound I-526, (2S,3S,4R,5S)-N-[3-({4-chloro-3-[({1-[4-(2-cyclopropoxyphenyl)pyridin-3-yl]cyclopropyl}amino)methyl]phenyl}sulfanyl)propyl]-2,3,4,5,6-pentahydroxy-N-[2-(2-hydroxyethoxy)ethyl]hexanamide] the value was 126 to 1000 nM; for `O=C([C@@H](O)[C@@H](O)[C@H](O)[C@@H](O)CO)N(CCCCO)CCCSc1ccc(Cl)c(CNC2(c3cnccc3-c3ccccc3OC3CC3)CC2)c1` [Compound I-527, (2S,3S,4R,5S)-N-[3-({4-chloro-3-[({1-[4-(2-cyclopropoxyphenyl)pyridin-3-yl]cyclopropyl}amino)methyl]phenyl}sulfanyl)propyl]-2,3,4,5,6-pentahydroxy-N-(4-hydroxybutyl)hexanamide], less than 100 nM.
